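Results reflect a 48-hour exposure of cells in 96-well plates to compound at five concentrations. The concentration for full growth arrest is given as TGI.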
How the values were obtained:
Experiment in all cases: NCI-60 cell line screen, 48 h
[1] = test system: OVCAR-3 ovarian
[2] = test system: NCI-H226 lung
[3] = test system: HOP-62 NSCLC
[4] = test system: LOX IMVI melanoma
[5] = test system: U251 CNS
[6] = test system: CAKI-1 renal
[7] = test system: DU-145 prostate
[8] = test system: MDA-MB-231 breast
[9] = test system: SR leukemia
[10] = test system: SN12C renal
[11] = test system: KM12 colon
[12] = test system: MDA-N
[13] = test system: SK-MEL-28 melanoma
[14] = test system: UACC-257 melanoma
[15] = test system: HCC-2998 colon
[16] = test system: 786-0 renal
[17] = test system: HCT-15 colon
[18] = test system: SF-539 CNS

| SMILES | TGI [1] | TGI [2] | TGI [3] | TGI [4] | TGI [5] | TGI [6] | TGI [7] | TGI [8] | TGI [9] | TGI [10] | TGI [11] | TGI [12] | TGI [13] | TGI [14] | TGI [15] | TGI [16] | TGI [17] | TGI [18] |
| --- | --- | --- | --- | --- | --- | --- | --- | --- | --- | --- | --- | --- | --- | --- | --- | --- | --- | --- |
| CC1(C)OC(=O)N(c2ccccc2)C12C=Cc1cccc([N+](=O)[O-])c1O2 (stereo not drawn) | > 100 µM | > 100 µM | > 100 µM | > 100 µM | > 100 µM | > 100 µM | > 100 µM | > 100 µM | 50.2 µM | > 100 µM | > 100 µM | > 100 µM | > 100 µM | > 100 µM | > 100 µM | > 100 µM | > 100 µM |  |
| CC(=O)OCC1OC(Nn2c(=O)[nH]c3ccccc3c2=O)C(OC(C)=O)C(OC(C)=O)C1OC(C)=O (stereo not drawn) | > 100 µM | > 100 µM | > 100 µM | > 100 µM | > 100 µM | > 100 µM | > 100 µM | > 100 µM | > 100 µM | > 100 µM | > 100 µM | > 100 µM | > 100 µM | > 100 µM | 53 µM | > 100 µM | > 100 µM | > 100 µM |
| NC(=O)Cc1nc2c(N)ncnc2n1C1OC(CO)C(O)C1O (stereo not drawn) | > 100 µM | > 100 µM | > 100 µM | > 100 µM | > 100 µM | > 100 µM | > 100 µM | > 100 µM | > 100 µM | > 100 µM | > 100 µM | > 100 µM | > 100 µM | > 100 µM | > 100 µM | > 100 µM | > 100 µM | > 100 µM |
| CC(=O)OCC1OC(n2c(-c3ccccc3)c(C(C)=O)c(-c3cccc4ccccc34)c(C#N)c2=S)C(OC(C)=O)C(OC(C)=O)C1OC(C)=O (stereo not drawn) | > 100 µM | > 100 µM | > 100 µM | > 100 µM | > 100 µM |  | > 100 µM | > 100 µM | > 100 µM | > 100 µM | > 100 µM | > 100 µM | > 100 µM | > 100 µM | > 100 µM | > 100 µM | > 100 µM | > 100 µM |
| COC(=O)C(Cc1c[nH]c2ccccc12)NC(=O)c1ccc(-c2ccc(Cl)cc2Cl)o1 (stereo not drawn) | > 100 µM | > 100 µM | > 100 µM | > 100 µM | > 100 µM | > 100 µM | > 100 µM | > 100 µM | > 100 µM | > 100 µM | > 100 µM | > 100 µM | > 100 µM | 99.3 µM | 48.5 µM | > 100 µM | > 100 µM | 91 µM |
| CC(=O)Nc1c(C)cc2c(nc3n2CCC3OC(C)=O)c1[N+](=O)[O-] (stereo not drawn) | > 100 µM | > 100 µM |  | > 100 µM | > 100 µM | > 100 µM | > 100 µM | > 100 µM | > 100 µM | > 100 µM | > 100 µM | > 100 µM | > 100 µM | > 100 µM |  | > 100 µM | > 100 µM | > 100 µM |
| O=C(CN1CCOCC1)c1ccc2c(c1)oc(=O)n2CCN1CCOCC1 | > 100 µM | > 100 µM | > 100 µM | > 100 µM | > 100 µM | > 100 µM | > 100 µM | > 100 µM | > 100 µM | > 100 µM | > 100 µM | > 100 µM | > 100 µM |  |  | > 100 µM |  | > 100 µM |
| Cc1ccc(S(=O)(=O)Oc2nc3ccccc3nc2OS(=O)(=O)c2ccc(C)cc2)cc1 | > 100 µM | > 100 µM |  | > 100 µM | > 100 µM | 82.4 µM | > 100 µM | > 100 µM | > 100 µM | > 100 µM | > 100 µM | > 100 µM | > 100 µM | > 100 µM | > 100 µM | > 100 µM | > 100 µM | > 100 µM |
| Cc1ccc(/C(O)=C/C(=O)C(=O)NC23CC4CC(CC(C4)C2)C3)cc1 |  |  | > 10 µM | > 10 µM |  | > 10 µM | > 10 µM | > 10 µM | > 10 µM | > 10 µM | > 10 µM | > 10 µM | > 10 µM | > 10 µM | > 10 µM | > 10 µM | > 10 µM |  |
| Cc1ccc(O)c(C2=CC(c3cccc(Cl)c3)SC(N)=N2)c1 (stereo not drawn) | 90.1 µM | 38.9 µM | 64.1 µM | 34.7 µM | 34.4 µM | > 100 µM | > 100 µM |  | 46.5 µM | 34.7 µM | 89.6 µM | 39.7 µM |  | 46.8 µM | 33.4 µM | > 100 µM | 38.2 µM | 53.1 µM |
| COC1CC(COCc2ccccc2)CC(OC)O1 (stereo not drawn) | > 100 µM | > 100 µM | > 100 µM | > 100 µM |  | > 100 µM | > 100 µM |  | > 100 µM | > 100 µM | > 100 µM | > 100 µM |  | > 100 µM | > 100 µM | > 100 µM | > 100 µM | > 100 µM |
| CCC(=O)Nc1ccc(NC(C#N)c2cccc(Oc3ccccc3)c2)cc1 (stereo not drawn) | > 100 µM | 89.3 µM | > 100 µM | 47 µM |  | > 100 µM | > 100 µM |  | 55 µM | > 100 µM | > 100 µM | > 100 µM | > 100 µM |  |  | > 100 µM | > 100 µM | 74.2 µM |
| C/C(CC(O)(/C=N/O)c1ccccc1)=N/O (stereo not drawn) | > 100 µM | > 100 µM | > 100 µM | > 100 µM | > 100 µM | > 100 µM |  | > 100 µM | > 100 µM | > 100 µM | > 100 µM | > 100 µM | > 100 µM | > 100 µM | > 100 µM | > 100 µM | > 100 µM | > 100 µM |
| Cn1c(=O)c2c(nc3n2CCCC(=O)N3CC(O)CCl)n(C)c1=O (stereo not drawn) | > 100 µM | > 100 µM | > 100 µM | > 100 µM | > 100 µM | > 100 µM | > 100 µM |  | > 100 µM | > 100 µM | > 100 µM | > 100 µM | > 100 µM | > 100 µM | > 100 µM | > 100 µM | > 100 µM |  |

Source: PubChem BioAssay (NCI)
